The values below come from paper PMC8429549, “Glycosylation reduces the glycan-independent immunomodulatory effect of recombinant Orysata lectin in Drosophila S2 cells” (Scientific Reports, 2021).

This experiment has as its target T1, BOry (recombinant Orysata from E. coli) (Oryza sativa, UniProt Q0JMY8).
T1 construct: gene SALT; pColdII, N-terminal poly-His tag kept; E. coli BL21; non-glycosylated
T1 sequence (Q0JMY8 1-145): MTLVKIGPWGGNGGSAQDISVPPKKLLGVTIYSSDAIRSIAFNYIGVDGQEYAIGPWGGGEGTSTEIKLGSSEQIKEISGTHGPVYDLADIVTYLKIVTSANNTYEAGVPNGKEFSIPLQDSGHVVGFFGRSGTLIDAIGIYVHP
Description: competition: FITC-BOry on blot of glycosylated YOry. The conditions noted are these: 20 mM mannose in PBS preincubated 20 min; FITC-labelled lectin; competitive with the N-glycan of YOry. In kind it is binding.

Take `OC[C@H]1OC(O)[C@@H](O)[C@@H](O)[C@@H]1O` (stereo partly shown) [mannose]: the “competition: FITC-BOry on blot of glycosylated YOry” value is listed as “Preincubation of the FITC-BOry with mannose, abolished the binding to the glycosylated YOry”.
